According to patent US20130296330A1, “MACROCYCLIC INTEGRASE INHIBITORS FOR USE IN THE TREATMENT OF FELINE IMMUNODEFICIENCY VIRUS” (ELANCO ANIMAL HEALTH IRELAND LIMITED, priority 2011, published 2013):

What was measured:
[1] = Cellular cytotoxic activity, mock-infected feline thymocytes, trypan blue exclusion staining; assay type: cell-based; conditions: cat, read-out: CC50 (50% cytotoxic concentration)
Procedure: (§1) The cytotoxicity of the compounds was determined in parallel to the experiments under assay 1 on mock-infected feline thymocytes respectively CRFK cells cultured in the presence or absence of different concentrations of the compound.
Cytotoxicity on feline thymocytes was determined by trypan blue exclusion staining whereby the CC50 for compound (6) was measured as >10 nM.

[2] = Cellular cytotoxic activity, mock-infected CRFK cells, MTT assay; assay type: cell-based, feline; conditions: cat, read-out: CC50 (50% cytotoxic concentration)
Procedure: as §1
After 6 days of incubation cell viability of the CRFK cells was measured by using a colorimetric MTT assay. A solution of 3-(4,5-dimethylthiazol-2-yl)-2,5-diphenyltetrazolium bromide (MTT) in PBS at a final concentration of 0.5 mg/ml was added to each well. After 2 hours incubation at 37 C and 5% CO2, the medium containing the MTT was removed and the cells were lysed by addition of 200 μl DMSO to each well. Following 10 minutes incubation at room temperature on a rocking plate, the optical density (OD) values at […] were determined. The compound concentration that decreased the viability of 50% of the cells was defined as the 50% cytotoxic concentration (CC50).

FIV strain Utrecht-113 = experiment: Inhibitory activity on FIV replication wild type, CRFK cells (FIV p24 ELISA); assay type: cell-based; conditions: Feline immunodeficiency virus, 144 h, FIV strain Utrecht-113, 6 days, read-out: EC50 (concentration required to reduce antigen production by 50%)
Procedure: (§2) The anti-FIV activity of the compounds was tested in primary feline thymocytes isolated form specific pathogen free cats, and in Crandell feline kidney (CRFK) cells.
Crandell Feline Kidney (CRFK) cells were maintained in DMEM (Dulbecco's Modified Eagle's Medium (Lonza) supplemented with, 10% inactivated fetal calf serum, antibiotics (100 IU/ml penicillin and 100 μg/ml streptomycin). Cells were seeded into a 96 well plate (5×10^4 cells per well) and pre-incubated with four-fold dilutions of the antiviral compound for 1 hours. The CrFK cells were washed with PBS DEAE 50 mg/l, inoculated with 100 TCID50 of FIV strain Utrecht-113 in the presence of the different concentrations of compound and subsequently incubated for 2 hours in a humidified incubator with a 5% CO2 atmosphere at 37° C. After 2 hours cells were washed twice in DMEM medium and new medium containing the different concentrations of compound were added. After incubation for 6 days the supernatant was harvested and the amount of virus within the supernatant determined using a FIV p24 ELISA. The 50% effective concentration (EC50) was defined as the concentration of the compound required to reduce the antigen production by 50% compared to untreated controls.

FIV strain Thymo-113 = experiment: Inhibitory activity on FIV replication wild type, feline thymocytes (FIV p24 ELISA); assay type: cell-based; conditions: Feline immunodeficiency virus, Thymocyte, 144 h, primary feline thymocytes, FIV strain Thymo-113, 6 days, read-out: EC50 (concentration required to reduce antigen production by 50%)
Procedure: as §2
Feline thymocytes were maintained in complete Iscove's Modified Medium (Iscoves medium supplemented with GlutamaxI (Invitrogen/Gibco BRL), 10% inactivated fetal calf serum, antibiotics (100 IU/ml penicillin and 100 μg/ml streptomycin) 2-Mercapto-ethanol (50 μM) and 100 IU/ml human recombinant IL-2 (Chiron). Cells were seeded into a 96 well plate (5×10^4 cells per well) and pre-incubated with four-fold dilutions of the antiviral compound. Plates were incubated for 1 hour in a humidified incubator with a 5% CO2 atmosphere at 37° C. Subsequently, cells were inoculated with 100 TCID50 of FIV strain Thymo-113 in the presence of the different concentrations of compound. After 2 hours cells were washed twice in Iscove's medium and new medium containing the different concentrations of compound were added. After incubation for 6 days the supernatant was harvested and the amount of virus within the supernatant determined using a FIV p24 ELISA. The 50% effective concentration (EC50) was defined as the concentration of the compound required to reduce the antigen production by 50% compared to untreated controls.

Q: Which results are given for `CN1c2nc(c(O)c3ncccc23)C(=O)NCc2ccc(F)cc2C(=O)NCCCCCS1(=O)=O` [Compound 6]?
A: CC50 [1]: > 10 nM; CC50 at 6 days [2]: > 10 nM; EC50 (FIV strain Utrecht-113): 20 nM; EC50 (FIV strain Thymo-113): 20 nM
